Reference: PubChem BioAssay AID256 (DTP/NCI, 2004)
Where “and” joins values, the source holds several entries; their conditions need not be identical. Equal entries are not always repeated. Toxic doses and inconclusive results are not listed.

System: CD2F1 mice, L1210 leukemia ip, survival T/C
Assay: NCI In Vivo Anticancer Drug Screen. Data for tumor model L1210 Leukemia (intraperitoneal) in CD2F1 (CDF1) mice
Conditions: endpoint: mean survival time, higher = longer survival
Outline: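 Transplantable tumor in mice; compound-treated vs vehicle-treated groups. Read-out = treated/control ratio of the measured endpoint.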

[1] = dose: 100.0 mg/kg/injection, schedule: Q01DX009 (ip), vehicle: saline with Tween-80
[2] = dose: 200.0 mg/kg/injection, schedule: Q01DX009 (ip), vehicle: saline with Tween-80
[3] = dose: 50.0 mg/kg/injection, schedule: Q01DX009 (ip), vehicle: saline with Tween-80
[4] = dose: 100.0 mg/kg/injection, schedule: Q04DX003 (ip), vehicle: saline with Tween-80
[5] = dose: 200.0 mg/kg/injection, schedule: Q04DX003 (ip), vehicle: saline with Tween-80
[6] = dose: 200.0 mg/kg/injection, schedule: Q04DX002 (ip), vehicle: saline with Tween-80
[7] = dose: 400.0 mg/kg/injection, schedule: Q04DX003 (ip), vehicle: saline with Tween-80
[8] = dose: 100.0 mg/kg/injection, schedule: Q04DX003 (ip), vehicle: saline
[9] = dose: 12.5 mg/kg/injection, schedule: Q01DX009 (ip), vehicle: saline
[10] = dose: 25.0 mg/kg/injection, schedule: Q01DX009 (ip), vehicle: saline

CC(=O)/C=C/Sc1n[nH]c(=O)[nH]c1=O
T/C (dose: 12.5 mg/kg/injection, schedule: Q01DX005 (ip), vehicle: distilled water + Tween-80): 106 % of control
T/C (dose: 25.0 mg/kg/injection, schedule: Q01DX005 (ip), vehicle: distilled water + Tween-80): 101 % of control
T/C (dose: 50.0 mg/kg/injection, schedule: Q01DX005 (ip), vehicle: distilled water + Tween-80): 107 % of control
T/C (dose: 100.0 mg/kg/injection, schedule: Q01DX005 (ip), vehicle: distilled water + Tween-80): 98 % of control

CC(C)(C)c1ccc(OS(=O)(=O)c2cccc([N+](=O)[O-])c2)cc1
T/C [1]: 86 % of control
T/C [2]: 102 % of control
T/C (dose: 400.0 mg/kg/injection, schedule: Q01DX009 (ip), vehicle: saline with Tween-80): 94 % of control

CC(=O)CC(O)(C(F)(F)F)C(F)(F)F
T/C [3]: 101 % of control
T/C [1]: 102 % of control
T/C [4]: 102 % of control
T/C [2]: 101 % of control
T/C [5]: 89 % of control

Cn1c(-[n+]2ccccc2)nc2c1c(=O)[nH]c(=O)n2C
T/C (dose: 12.5 mg/kg/injection, schedule: Q01DX005 (ip), vehicle: water): 100 % of control
T/C (dose: 25.0 mg/kg/injection, schedule: Q01DX005 (ip), vehicle: water): 102 % of control
T/C (dose: 50.0 mg/kg/injection, schedule: Q01DX005 (ip), vehicle: water): 97 % of control
T/C (dose: 100.0 mg/kg/injection, schedule: Q01DX005 (ip), vehicle: water): 94 % of control
T/C (dose: 200.0 mg/kg/injection, schedule: Q01DX005 (ip), vehicle: water): 102 % of control

O.O=S(=O)(O)O.[Co+3].[NH2-].[NH2-].[NH2-].[NH2-].[NH2-]
T/C [6]: 123 % of control

O=[N+]([O-])c1ccc(N/N=C(/C(=N/Nc2ccc([N+](=O)[O-])cc2)c2ccccc2)c2ccccc2)cc1
T/C (dose: 12.5 mg/kg/injection, schedule: Q01DX009 (ip), vehicle: other): 104 % of control
T/C (dose: 25.0 mg/kg/injection, schedule: Q01DX009 (ip), vehicle: other): 101 % of control
T/C (dose: 50.0 mg/kg/injection, schedule: Q01DX009 (ip), vehicle: other): 102 % of control
T/C (dose: 100.0 mg/kg/injection, schedule: Q01DX009 (ip), vehicle: other): 93 % of control
T/C [4]: 93 % of control
T/C (dose: 200.0 mg/kg/injection, schedule: Q01DX009 (ip), vehicle: other): 93 % of control
T/C [5]: 88 % of control
T/C [7]: 88 % of control

CC(=O)CC(=O)N1CCN(C(=O)CC(C)=O)CC1
T/C [8]: 98 % of control
T/C (dose: 200.0 mg/kg/injection, schedule: Q04DX003 (ip), vehicle: saline): 96 % of control
T/C (dose: 400.0 mg/kg/injection, schedule: Q04DX003 (ip), vehicle: saline): 98 % of control

O/N=C1\CCCC\C1=N/O.O/N=C1\CCCC\C1=N/O.[Pt]
T/C (dose: 3.13 mg/kg/injection, schedule: Q04DX003 (ip), vehicle: dextrose): 98 % of control
T/C (dose: 6.25 mg/kg/injection, schedule: Q04DX003 (ip), vehicle: dextrose): 98 % of control
T/C (dose: 12.5 mg/kg/injection, schedule: Q04DX003 (ip), vehicle: dextrose): 101 % of control
T/C (dose: 25.0 mg/kg/injection, schedule: Q04DX003 (ip), vehicle: dextrose): 98 % of control
T/C (dose: 50.0 mg/kg/injection, schedule: Q04DX003 (ip), vehicle: dextrose): 97 % of control and 101 % of control
T/C (dose: 100.0 mg/kg/injection, schedule: Q04DX003 (ip), vehicle: dextrose): 93 % of control and 101 % of control
T/C (dose: 200.0 mg/kg/injection, schedule: Q04DX003 (ip), vehicle: dextrose): 96 % of control and 101 % of control
T/C (dose: 400.0 mg/kg/injection, schedule: Q04DX003 (ip), vehicle: dextrose): 101 % of control

COC(=O)CCCCC(=O)OC
T/C [4]: 96 % of control
T/C [5]: 102 % of control
T/C [7]: 102 % of control

CNNCc1ccc(C(=O)NC(C)C)cc1
T/C (dose: 3.13 mg/kg/injection, schedule: Q01DX010 (ip), vehicle: saline): 96 % of control
T/C (dose: 6.25 mg/kg/injection, schedule: Q01DX010 (ip), vehicle: saline): 106 % of control
T/C (dose: 6.25 mg/kg/injection, schedule: Q01DX010 (sc), vehicle: saline): 103 % of control
T/C (dose: 12.5 mg/kg/injection, schedule: Q01DX010 (ip), vehicle: saline): 108 % of control
T/C (dose: 25.0 mg/kg/injection, schedule: Q01DX010 (oral), vehicle: saline): 120 % of control
T/C (dose: 25.0 mg/kg/injection, schedule: Q01DX010 (sc), vehicle: saline): 116 % of control
T/C (dose: 29.7 mg/kg/injection, schedule: Q01DX009 (ip), vehicle: saline): 110 % of control
T/C (dose: 38.0 mg/kg/injection, schedule: Q03DX004 (ip), vehicle: saline): 100 % of control
T/C (dose: 50.0 mg/kg/injection, schedule: Q01DX010 (sc), vehicle: saline): 120 % of control
T/C [8]: 112 % of control
T/C (dose: 133.0 mg/kg/injection, schedule: Q01DX009 (ip), vehicle: saline): 159 % of control and 170 % of control
T/C (dose: 150.0 mg/kg/injection, schedule: Q03DX004 (ip), vehicle: saline): 108 % of control
T/C (dose: 200.0 mg/kg/injection, schedule: Q01DX007 (ip), vehicle: saline): 179 % of control

CCOC(=O)C1(C(C)CC)SCCCS1 (centres undefined)
T/C (dose: 100.0 mg/kg/injection, schedule: Q04DX002 (ip), vehicle: saline with Tween-80): 97 % of control
T/C [6]: 97 % of control
T/C (dose: 400.0 mg/kg/injection, schedule: Q04DX002 (ip), vehicle: saline with Tween-80): 94 % of control

O=[N+]([O-])c1ccc2c(c1)C(=Nc1ccc3ccccc3c1)c1ccccc1-2
T/C [4]: 98 % of control
T/C [5]: 86 % of control

COc1cccc2c1C(=O)c1c(O)c3c(c(O)c1C2=O)C[C@H](O)C[C@@H]3OC1CC(N)C(O)C(C)O1 (some centres undefined)
T/C (dose: 0.75 mg/kg/injection, schedule: Q01DX009 (ip), vehicle: saline): 107 % of control
T/C (dose: 1.5 mg/kg/injection, schedule: Q01DX009 (ip), vehicle: saline): 105 % of control
T/C (dose: 3.0 mg/kg/injection, schedule: Q01DX009 (ip), vehicle: saline): 111 % of control
T/C (dose: 3.0 mg/kg/injection, schedule: Q01DX009 (ip), vehicle: water): 121 % of control
T/C (dose: 6.0 mg/kg/injection, schedule: Q01DX009 (ip), vehicle: saline): 104 % of control
T/C (dose: 12.0 mg/kg/injection, schedule: Q01DX009 (ip), vehicle: saline): 115 % of control
T/C (dose: 12.0 mg/kg/injection, schedule: Q01DX009 (ip), vehicle: water): 118 % of control
T/C (dose: 24.0 mg/kg/injection, schedule: Q01DX009 (ip), vehicle: water): 152 % of control

C=CCOc1cccc[n+]1CC(=O)CC(O)(C(F)(F)F)C(F)(F)F
T/C [4]: 95 % of control
T/C [5]: 92 % of control
T/C [7]: 97 % of control

CC(=O)CC(=O)OCc1ccccc1
T/C [4]: 100 % of control
T/C [5]: 95 % of control
T/C [7]: 103 % of control

COc1ccc2c(c1)C=CC(C#N)N2 (centres undefined)
T/C [4]: 87 % of control
T/C [5]: 91 % of control

COC(=Nc1ccccc1)SSC(C)C
T/C (dose: 6.25 mg/kg/injection, schedule: Q01DX009 (ip), vehicle: saline with Tween-80): 93 % of control and 101 % of control
T/C (dose: 12.5 mg/kg/injection, schedule: Q01DX009 (ip), vehicle: saline with Tween-80): 97 % of control and 108 % of control
T/C (dose: 25.0 mg/kg/injection, schedule: Q01DX009 (ip), vehicle: saline with Tween-80): 98 % of control and 104 % of control
T/C [3]: 98 % of control and 108 % of control
T/C [1]: 106 % of control
T/C [2]: 108 % of control

O=c1scc(-c2ccc([N+](=O)[O-])cc2)s1
T/C (dose: 12.5 mg/kg/injection, schedule: Q04DX003 (ip), vehicle: Klucel (hydroxypropylcellulose) (HPC)): 104 % of control
T/C (dose: 25.0 mg/kg/injection, schedule: Q04DX003 (ip), vehicle: Klucel (hydroxypropylcellulose) (HPC)): 91 % of control

Nc1ncnc2c1ncn2C1OC(C(=O)OCCO)C(O)C1O (centres undefined)
T/C [9]: 108 % of control
T/C [10]: 114 % of control
T/C (dose: 25.0 mg/kg/injection, schedule: Q01DX009 (ip), vehicle: suspension in saline): 110 % of control
T/C (dose: 25.0 mg/kg/injection, schedule: Q04DX002 (ip), vehicle: saline): 93 % of control
T/C (dose: 50.0 mg/kg/injection, schedule: Q01DX009 (ip), vehicle: suspension in saline): 124 % of control
T/C (dose: 50.0 mg/kg/injection, schedule: Q04DX002 (ip), vehicle: saline): 95 % of control
T/C (dose: 100.0 mg/kg/injection, schedule: Q04DX002 (ip), vehicle: saline): 93 % of control
T/C (dose: 200.0 mg/kg/injection, schedule: Q04DX002 (ip), vehicle: saline): 90 % of control

CCCOCC(O)CNCCN (centres undefined)
T/C [9]: 96 % of control and 101 % of control
T/C [10]: 94 % of control and 98 % of control
T/C (dose: 50.0 mg/kg/injection, schedule: Q01DX009 (ip), vehicle: saline): 93 % of control and 94 % of control
T/C (dose: 100.0 mg/kg/injection, schedule: Q01DX009 (ip), vehicle: saline): 93 % of control and 96 % of control
